Where a name gives a salt, the structure may show the parent alone.
Target: T1, human recombinant ASK1 (Homo sapiens, UniProt Q99683)
T1 sequence (Q99683 1-1374): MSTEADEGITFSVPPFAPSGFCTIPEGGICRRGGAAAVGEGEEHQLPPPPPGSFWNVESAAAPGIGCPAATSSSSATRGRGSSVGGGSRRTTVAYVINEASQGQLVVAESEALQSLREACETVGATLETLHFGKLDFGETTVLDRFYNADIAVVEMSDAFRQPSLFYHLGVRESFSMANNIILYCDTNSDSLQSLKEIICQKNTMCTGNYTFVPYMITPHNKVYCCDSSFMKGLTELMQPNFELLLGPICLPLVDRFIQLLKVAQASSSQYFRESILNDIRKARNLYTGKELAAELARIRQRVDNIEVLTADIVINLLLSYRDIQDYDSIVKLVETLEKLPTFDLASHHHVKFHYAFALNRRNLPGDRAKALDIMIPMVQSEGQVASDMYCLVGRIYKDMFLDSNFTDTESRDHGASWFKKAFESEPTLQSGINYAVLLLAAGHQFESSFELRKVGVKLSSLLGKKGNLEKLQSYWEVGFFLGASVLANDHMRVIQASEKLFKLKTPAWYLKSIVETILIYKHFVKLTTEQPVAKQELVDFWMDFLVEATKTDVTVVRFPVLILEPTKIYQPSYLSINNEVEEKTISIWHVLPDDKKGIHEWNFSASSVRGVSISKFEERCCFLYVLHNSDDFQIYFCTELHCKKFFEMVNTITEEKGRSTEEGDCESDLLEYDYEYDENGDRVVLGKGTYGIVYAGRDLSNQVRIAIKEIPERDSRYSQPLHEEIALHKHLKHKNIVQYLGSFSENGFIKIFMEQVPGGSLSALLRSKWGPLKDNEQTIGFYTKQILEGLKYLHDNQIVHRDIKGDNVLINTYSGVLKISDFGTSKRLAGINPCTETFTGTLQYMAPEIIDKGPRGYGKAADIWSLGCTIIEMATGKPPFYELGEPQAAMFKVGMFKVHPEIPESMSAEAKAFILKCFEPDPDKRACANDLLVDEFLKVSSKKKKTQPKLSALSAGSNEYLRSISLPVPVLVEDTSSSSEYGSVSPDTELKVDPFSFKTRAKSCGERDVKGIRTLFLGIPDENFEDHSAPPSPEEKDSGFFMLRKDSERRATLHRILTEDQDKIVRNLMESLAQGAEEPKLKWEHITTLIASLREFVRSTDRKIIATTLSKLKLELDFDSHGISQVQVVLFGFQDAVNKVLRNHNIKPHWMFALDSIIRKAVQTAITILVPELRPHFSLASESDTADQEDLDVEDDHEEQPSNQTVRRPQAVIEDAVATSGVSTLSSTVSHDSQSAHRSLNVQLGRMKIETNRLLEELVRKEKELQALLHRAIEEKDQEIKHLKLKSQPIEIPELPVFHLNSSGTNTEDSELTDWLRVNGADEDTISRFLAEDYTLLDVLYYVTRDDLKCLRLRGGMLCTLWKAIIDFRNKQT
Experiment: Enzyme inhibition assay (in vitro ASK1 assay), luciferase-based measurement of remaining ATP
Format: biochemical
Settings: human recombinant ASK1, MBP and ATP as substrates, 180 minutes at 30° C.; triplicates on at least 2 separate occasions
Protocol: Assays were performed in a 384 well plate (Corning, #3654) format, using the human recombinant ASK1 as an enzyme and MBP (myelin basic protein, Upstate/Millipore, #13-104) with ATP as substrates. Assay read out was the measurement of the amount of ATP remaining after stopping the reaction, using a luciferase-based kit from Cambrex.
Compounds to be tested were dissolved in 100% DMSO at a concentration of 10 mM. Subsequent dilutions were performed in 100% DMSO using a Biomek FX Workstation. 5 μL of diluted compound or vehicle (6% DMSO) was distributed to a 384 well plate. 5 μL of substrates (ATP 7.5 μM, MBP 450 ng/μL) diluted in ASK1 buffer (20 mM Tris HCl pH 7.4, 0.001% Brij35, 0.01% BSA, 5 mM MgCl2, 1 mM DL-Dithiothreitol) were added, followed by 5 μL at of human recombinant ASK1 enzyme (22.5 ng/mL) diluted in ASK1 buffer in order to start the reaction. The reaction ran for 180 minutes at 30° C. before the addition of 5 μL of stop solution (Cambrex, #LT23-231). 10 μL of Pklight ATP detection reagent (Cambrex #LT23-233) were added. After 120 min of incubation, luminescence was measured on a Perkin-Elmer Victor 2 spectrofluorimeter. The percentage of inhibition relative to the fluorescence observed in the presence of solvent (1% DMSO) alone was determined. The IC50 values for inhibition were determined in triplicates on at least 2 separate occasions.

Row | IC50 | SMILES
1 | 8 ± 0.4 µM | O=C(Nc1nc2cccc(-c3ccoc3)n2n1)c1ccc(C(F)(F)F)cc1 [Example 3, N-[5-(3-furyl)[1,2,4]triazolo[1,5-a]pyridin-2-yl]-4-(trifluoromethyl)benzamide]
2 | 17 ± 5 µM | COCC(=O)Nc1nc2cccc(-c3ccoc3)n2n1 [Example 5, N-[5-(3-furyl)[1,2,4]triazolo[1,5-a]pyridin-2-yl]-2-methoxyacetamide]
3 | 7 ± 1 µM | COC(=O)CCC(=O)Nc1nc2cccc(-c3ccoc3)n2n1 [Example 7, methyl 4-{[5-(3-furyl)[1,2,4]triazolo[1,5-a]pyridin-2-yl]amino}-4-oxobutanoate]
4 | 16 ± 4 µM | O=C(Nc1nc2cccc(-c3ccc[nH]3)n2n1)C1CCCC1 [Example 10, N-[5-(1H-pyrrol-2-yl)[1,2,4]triazolo[1,5-a]pyridin-2-yl]cyclopentanecarboxamide]
5 | 14.8 ± 0.2 µM | O=C(Nc1nc2cccc(-c3cn[nH]c3)n2n1)c1ccccc1 [Example 12, N-[5-(1H-pyrazol-4-yl)[1,2,4]triazolo[1,5-a]pyridin-2-yl]benzamide]
6 | 6.9 ± 0.05 µM | O=C(Nc1nc2cccc(NCc3ccco3)n2n1)c1ccccc1 [Example 44, N-{5-[(2-furylmethyl)amino][1,2,4]triazolo[1,5-a]pyridin-2-yl}benzamide]
7 | 3.38 µM | O=C(Nc1nc2cccc(NCC3CCCO3)n2n1)c1ccccc1 (centres unmarked) [Example 45, N-{5-[(tetrahydrofuran-2-ylmethyl)amino][1,2,4]triazolo[1,5-a]pyridin-2-yl}benzamide]
8 | 8 ± 1 µM | CCC(CO)Nc1cccc2nc(NC(=O)c3ccccc3)nn12 (centres unmarked) [Example 50, N-(5-{[1-(hydroxymethyl)propyl]amino}[1,2,4]triazolo[1,5-a]pyridin-2-yl)benzamide]
9 | 1.7 ± 0.2 µM | CC(C)(C)OC(=O)NCc1ccc(C(=O)Nc2nc3cccc(-c4ccoc4)n3n2)cc1 [Example 52, tert-butyl[4-({[5-(3-furyl)[1,2,4]triazolo[1,5-a]pyridin-2-yl]amino}carbonyl)benzyl]carbamate]
10 | 0.99 ± 0.04 µM | COc1cc(-c2ccc3nc(NC(=O)c4ccccc4)nn3c2)ccc1O [Example 56, N-[6-(4-hydroxy-3-methoxyphenyl)[1,2,4]triazolo[1,5-a]pyridin-2-yl]benzamide hydrochloride]
11 | 0.18 ± 0.02 µM | O=C(Nc1nc2cccc(NC3CCCCCC3)n2n1)c1cccnc1 [Example 61, N-[5-(cycloheptylamino)[1,2,4]triazolo[1,5-a]pyridin-2-yl]nicotinamide dihydrochloride]
12 | 9.86 µM | Cc1ccc(CNc2cccc3nc(NC(=O)c4cccnc4)nn23)o1 [Example 63, N-(5-{[(5-methyl-2-furyl)methyl]amino}[1,2,4]triazolo[1,5-a]pyridin-2-yl)nicotinamide]
13 | 0.26 ± 0.01 µM | COc1cc(-c2ccc3nc(NC(=O)c4cccnc4)nn3c2)ccc1O [Example 66, N-[6-(4-hydroxy-3-methoxyphenyl)[1,2,4]triazolo[1,5-a]pyridin-2-yl]nicotinamide hydrochloride]
14 | 4.08 µM | CN1CCC(Nc2cccc3nc(NC(=O)c4ccccc4)nn23)CC1 [Example 72, N-{5-[(1-methylpiperidin-4-yl)amino][1,2,4]triazolo[1,5-a]pyridin-2-yl}benzamide]
15 | 0.12 ± 0.01 µM | O=C(Nc1nc2cc(C(F)(F)F)cc(NC3CCCCC3)n2n1)c1cccnc1 [Example 74, N-[5-(cyclohexylamino)-7-(trifluoromethyl)[1,2,4]triazolo[1,5-a]pyridin-2-yl]nicotinamide]
16 | 1.66 ± 0.05 µM | O=C(Nc1nc2cccc(NC3CCCOC3)n2n1)c1ccccc1 (centres unmarked) [Example 81, N-[5-(tetrahydro-2H-pyran-3-ylamino)[1,2,4]triazolo[1,5-a]pyridin-2-yl]benzamide]
17 | 1.9 ± 0.2 µM | O=C(Nc1nc2cccc(SC3CCCCC3)n2n1)c1cccnc1 [Example 83, N-[5-(cyclohexylthio)[1,2,4]triazolo[1,5-a]pyridin-2-yl]nicotinamide]
18 | 0.11 ± 0.05 µM | O=C(Nc1nc2cccc(NC3CCCCC3)n2n1)c1ccc(N2CCOCC2)nc1 [Example 86, N-[5-(cyclohexylamino)[1,2,4]triazolo[1,5-a]pyridin-2-yl]-6-morpholin-4-ylnicotinamide]
19 | 5.96 µM | CN(C)Cc1ccc(C(=O)Nc2nc3cccc(NC4CCCCC4)n3n2)cc1 [Example 87, N-[5-(cyclohexylamino)[1,2,4]triazolo[1,5-a]pyridin-2-yl]-4-[(dimethylamino)methyl]benzamide]
20 | 0.46 ± 0.05 µM | O=C(Nc1nc2cc(C(F)(F)F)cc(NCC3CC3)n2n1)c1cccnc1 [Example 89, N-[5-[(cyclopropylmethyl)amino]-7-(trifluoromethyl)[1,2,4]triazolo[1,5-a]pyridin-2-yl]nicotinamide]
21 | 0.7 ± 0.1 µM | COC(=O)[C@H]1CC[C@H](Nc2cc(C(F)(F)F)cc3nc(NC(=O)c4cccnc4)nn23)CC1 [Example 90, methyl trans-4-{[2-[(pyridin-3-ylcarbonyl)amino]-7-(trifluoromethyl)[1,2,4]triazolo[1,5-a]pyridin-5-yl]amino}cyclohexanecarboxylate]
22 | 5.9 µM | CC(C)=Cc1cccc2nc(NC(=O)c3cccnc3)nn12 [Example 94, N-[5-(2-methylprop-1-en-1-yl)[1,2,4]triazolo[1,5-a]pyridin-2-yl]nicotinamide dihydrochloride]
23 | 0.99 ± 0.11 µM | O=C(CCNC(=O)c1ccccc1)Nc1nc2cccc(-c3ccoc3)n2n1 [Example 96, N-(3-{[5-(3-furyl)[1,2,4]triazolo[1,5-a]pyridin-2-yl]amino}-3-oxopropyl)benzamide]
24 | 0.042 ± 0.007 µM | CC(C)Nc1cc(C(F)(F)F)cc2nc(NC(=O)c3cccnc3)nn12 [Example 99, N-[5-(isopropylamino)-7-(trifluoromethyl)[1,2,4]triazolo[1,5-a]pyridin-2-yl]nicotinamide]
25 | 0.056 ± 0.008 µM | CCC(C)Nc1cc(C(F)(F)F)cc2nc(NC(=O)c3cccnc3)nn12 (centres unmarked) [Example 100, N-[5-(sec-butylamino)-7-(trifluoromethyl)[1,2,4]triazolo[1,5-a]pyridin-2-yl]nicotinamide]
26 | 0.519 ± 0.113 µM | O=C(Nc1nc2cccc(NCC3CCCCC3)n2n1)c1cccnc1 [Example 115, N-{5-[(cyclohexylmethyl)amino][1,2,4]triazolo[1,5-a]pyridin-2-yl}nicotinamide]
27 | 0.087 ± 0.006 µM | O=C(Nc1nc2cc(Cl)cc(NC3CCC3)n2n1)c1cccnc1 [Example 118, N-[7-chloro-5-(cyclobutylamino)[1,2,4]triazolo[1,5-a]pyridin-2-yl]nicotinamide]
28 | 0.067 ± 0.012 µM | O=C(Nc1nc2cc(Cl)cc(NC3CCCCC3)n2n1)c1cccnc1 [Example 120, N-[7-chloro-5-(cyclohexylamino)[1,2,4]triazolo[1,5-a]pyridin-2-yl]nicotinamide]
29 | 0.197 ± 0.006 µM | O=C(Nc1nc2cc(C(F)(F)F)cc(NCCCO)n2n1)c1cccnc1 [Example 124, N-[5-[(3-hydroxypropyl)amino]-7-(trifluoromethyl)[1,2,4]triazolo[1,5-a]pyridin-2-yl]nicotinamide]

— patent publication US8263595B2, “Triazolopyridine compounds and their use as ask inhibitors” (Merck Serono SA, priority 2007, dated 2012)
